Assay results: US7745570B2, “PH dependent adhesive peptides” (Kansas State University Research Foundation, priority 2005, dated 2010)
“Also recorded” adds a separate entry of the source. Where no end group is shown, it is not given here.

Tests used:
[1] = Wimley and White Hydrophobicity Scale; cited from earlier work
[2] = modified Wimley-White scale, side chain values; cited from earlier work
[3] = Viscosity of peptide solutions, Brookfield viscometer; format: physicochemical; details: peptide 4%, 20 rpm, RT
Procedure: Viscosity: Viscosity of peptides at different pH was measured in a Brookfield RVDV-III 5^+ viscometer (Middleboro, Mass.). All the measurements were taken at 2.5 minute intervals using 8 mL samples at ambient temperature with a spindle SC4-21 operating at 20 rpm. Five data points were averaged for each reported value.

[4] = Solubility and ionisation of peptides at the test pH values; format: physicochemical; details: for Solubility: aqueous peptide solutions at pH 2.2, 6.8, 12.0
[5] = MALDI mass spectrometry of dried/hot-pressed peptide for hydrolysis of peptide bonds; format: physicochemical; details: 4% peptide pH 12, dried at RT or 130° C. without pressure or 130° C. with pressure
Procedure: The same K3h9K3 samples used in the FTIR studies were analyzed by matrix assisted, laser desorption mass spectrometry. At elevated pH and temperature, the spontaneous hydrolysis of peptide bonds could occur. Dried samples taken from glass slides treated with 4% peptide solutions at pH 12 and dried at either room temperature or 130° C. without pressure as well as dried at 130° C. with pressure were dissolved in acetonitrile containing matrix and transferred to mass spectral target slides.

[6] = Circular dichroism at 25° C. to 75° C. (conformational stability); format: physicochemical; details: 250 μM, pH 12, 25° C. to 75° C.
Procedure: Circular Dichroism Spectra: The data set out in FIG. 4 were collected according to the following protocol. The circular dichroic spectra were recorded on a J-720 (Jasco, Japan) spectropolarimeter with a Neslab RTE-111M circulator using a 1.0 mm quartz cuvette from 260 to 180 nm. The spectra are an average of five scans recorded at a rate of 20 nm/min with a 0.2 nm step interval. For circular dichroism measurements, 1 mL samples of synthetic peptide were prepared with a different pH buffer solution. The following buffers were used: 60 mM glycine, 60 mM NaCl, 40 mM HCl, pH 2.2; 50 mM glycine, 50 mM NaCl, 0.2 mM NaOH, pH 6.8; and 45 mM glycine, 45 mM NaCl, 55 mM NaOH, pH 12. The final peptide concentration was 250 μM. All spectra were corrected by subtracting the baseline of the buffer solution recorded under the same condition. Unless otherwise noted, spectra were recorded at room temperature. The CD absorbances were expressed as the mean residue ellipticity in units of degrees cm^2 dmol^−1. Temperatures were controlled with a refrigerated circulator bath (Neslab RTE-111M). Temperatures were controlled between 25° C. to 75° C.

C[C@H](N)C(=O)O [Ala, alanine]
ΔG for transfer from water to organic phase [1]: 0.50 kcal/mol | ΔGresidue value [2]: -0.5 kcal/mol

NCC(=O)O [Gly]
ΔG for transfer from water to organic phase [1]: 1.15 kcal/mol

CSCC[C@H](N)C(=O)O [Met]
ΔG for transfer from water to organic phase [1]: -0.67 kcal/mol

N[C@@H](Cc1ccccc1)C(=O)O [Phe]
ΔG for transfer from water to organic phase [1]: -1.71 kcal/mol

N[C@@H](CO)C(=O)O [Ser]
ΔG for transfer from water to organic phase [1]: 0.46 kcal/mol

CC(C)[C@H](N)C(=O)O [Val, valine]
ΔG for transfer from water to organic phase [1]: -0.46 kcal/mol | ΔGresidue value [2]: 0.46 kcal/mol

EEE-FLIVIGSII-KKK (EEEFLIVIGSIIKKK) [Peptide E3h9K3]
Viscosity ([3]; pH 2.2): 190 mPa · s | Viscosity ([3]; pH 6.8): 245 mPa · s | Viscosity ([3]; pH 12): 20 mPa · s

EEEFLIVIGSIIEEE-OH [Peptide E3h9E3, EEE-FLIVIGSII-EEE]
Solubility [4]: insoluble below and somewhat above its pI; also recorded: insoluble at the two lower pH values | Viscosity ([3]; pH 12): 20 mPa · s

HHHFLIVIGSIIHHH [Peptide H3h9H3]
Solubility [4]: insoluble at all pH values

KKK-FLIVIGSII-EEE (KKKFLIVIGSIIEEE) [Peptide K3h9E3]
Viscosity ([3]; pH 2.2): 210 mPa · s | Viscosity ([3]; pH 6.8): 305 mPa · s | Viscosity ([3]; pH 12): 20 mPa · s

KKK-FLIVIGSII-KKK (KKKFLIVIGSIIKKK) [Peptide K3h9K3]
Peptide integrity (hydrolysis of peptide bonds) [5]: intact monomer however no detectable amounts of fragmented peptide | Effect of temperature on CD spectra (conformation) [6]: did not alter the CD spectra | Viscosity ([3]; pH 2.2): 20 mPa · s | Viscosity ([3]; pH 6.8): 20 mPa · s | Viscosity ([3]; pH 12): 290 mPa · s

RRRFLIVIGSIIRRR [Peptide R3h9R3]
Ionisation state ([4]; pH 12.0): not fully ionized
